Where two headings read alike, the source gives them in different places.
How the values were obtained:
Ctenocephalides felis = Ctenocephalides felis oral test; format: in vivo; conditions: application rate 100 ppm in citrated cattle blood, after 2 days, adult cat fleas
Method in brief: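 Kill (%) was recorded at 2 days. Compound, dissolved in DMSO and diluted into citrated cattle blood, was offered to roughly 20 unfed adult C. felis through parafilm.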

Musca domestica = Musca domestica test; format: in vivo; conditions: after 2 days, adult houseflies
Protocol: Musca domestica Test Solvent: dimethyl sulphoxide To produce a suitable active ingredient formulation, 10 mg of active ingredient are mixed with 0.5 ml of dimethyl sulphoxide, and the concentrate is diluted with water to the desired concentration. Vessels containing a sponge treated with sugar solution and the active ingredient formulation of the desired concentration are populated with 10 adult houseflies (Musca domestica). After 2 days, the kill in % is determined. 100% means that all of the flies have been killed; 0% means that none of the flies have been killed.

Spodoptera frugiperda = Spodoptera frugiperda spray test; format: in vivo; conditions: after 7 days, maize leaf discs
Method in brief: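 Efficacy in % was scored at 7 days against armyworm caterpillars placed on dried, compound-sprayed Zea mays leaf discs. Compound was dissolved in acetone/dimethylformamide and diluted in water with 1000 ppm alkylaryl polyglycol ether. 100% means all caterpillars were killed.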

Phaedon cochleariae = Phaedon cochleariae spray test; format: in vivo; conditions: after 7 days, Chinese cabbage leaf discs
Method in brief: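 Larval kill read at day 7 as percent, where 100% means every larva dead and 0% none; larvae were placed on dried Brassica pekinensis leaf discs previously sprayed with the formulation (acetone/dimethylformamide solvent, alkylaryl polyglycol ether emulsifier, water).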

Lucilia cuprina = Lucilia cuprina test; format: in vivo; conditions: application rate 100 ppm, after 2 days, L1 larvae
Method in brief: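 Percent mortality read at day 2, where 100% means all larvae dead. Roughly 20 L1 larvae were exposed on minced horsemeat treated with a DMSO/water formulation at the desired concentration.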

[1] = log P by HPLC on reversed-phase column (C 18), EEC Directive 79/831 Annex V.A8; format: physicochemical; conditions: 55° C.; for LOGP_HCOOH: log P (HCOOH); for chromatographic logP: reversed-phase HPLC column (C 18)
Protocol: Temperature: 55° C. […] Called log P (HCOOH) in the table. […] Called log P (neutral) in the table.

[2] = acidic range at pH 2.7, 0.1% aqueous formic acid and acetonitrile, HPLC on reversed-phase column (C 18)
[3] = log P, neutral range, HPLC on reversed-phase column (C 18)
[4] = acidic range pH 2.7, 0.1% aqueous formic acid and acetonitrile, reversed-phase column (C 18)

LOGP_HCOOH [1, 2] | LOGP_NEUTRAL [1, 3] | LOGP_HCOOH [1, 4] | chromatographic logP ([1]; pH 2.7, LC-MS acidic range, pH 2.7, 0.1% formic acid/acetonitrile, read-out: log P (acidic) / log P (HCOOH)) | chromatographic logP ([1]; pH 2.7, log P (HCOOH), acidic range at pH 2.7, 0.1% aqueous formic acid and acetonitrile, HPLC on reversed-phase column (C 18), read-out: LOGP_HCOOH) | LOGP_NEUTRAL ([1]; log P (neutral), HPLC reversed-phase column (C 18)) | SMILES | efficacy (kill in %) (Ctenocephalides felis) | efficacy (kill in %) (Musca domestica; application rate 100 ppm) | efficacy (caterpillars killed) (Spodoptera frugiperda; application rate 100 g/ha) | efficacy (caterpillars killed) (Spodoptera frugiperda; application rate 500 g/ha) | efficacy (beetle larvae killed) (Phaedon cochleariae; application rate 100 g/ha) | efficacy (beetle larvae killed) (Phaedon cochleariae; application rate 500 g/ha) | efficacy (kill in %) (Lucilia cuprina) | pest or weed control at 100 ppm (Ctenocephalides felis; Ctenocephalides felis, po, 48 h, read-out: efficacy (kill in %)) | pest or weed control at 100 g/ha (Spodoptera frugiperda; Spodoptera frugiperda, foliar, 168 h, application rate 100 g/ha, read-out: efficacy (caterpillars killed)) | pest or weed control at 500 g/ha (Spodoptera frugiperda; Spodoptera frugiperda, foliar, 168 h, application rate 500 g/ha, read-out: efficacy (caterpillars killed)) | pest or weed control at 100 g/ha (Phaedon cochleariae; Phaedon cochleariae, foliar, 168 h, application rate 100 g/ha, read-out: efficacy (beetle larvae killed)) | pest or weed control at 500 g/ha (Phaedon cochleariae; Phaedon cochleariae, foliar, 168 h, application rate 500 g/ha, read-out: efficacy (beetle larvae killed)) | efficacy (kill in %) (Musca domestica; application rate 20 ppm)
3.76 | 3.61 | – | – | – | – | N#Cc1ccc(CNC(=O)c2cc(-c3ccc4c(c3)OC(F)(F)O4)cc(NC(=O)C3CC3)n2)cc1 [Example I-154] | 100% | 100% | 83% | 100% | 100% | 100% | 100% | – | – | – | – | – | –
4.14 | 4.05 | – | – | – | – | N#Cc1ccc(CNC(=O)c2cc(-c3cc(F)c(OC(F)(F)F)c(F)c3)cc(NC(=O)C3CC3)n2)cc1 [Example I-152] | 100% | 90% | 100% | 100% | 100% | 100% | 90% | – | – | – | – | – | –
3.46 | 3.40 | – | – | – | – | CC(C#N)NC(=O)c1cc(-c2ccc(OC(F)(F)F)cc2)cc(NC(=O)C2CC2)n1 (stereo not drawn) [Example I-115] | 100% | 80% | 100% | 100% | 100% | 100% | 90% | – | – | – | – | – | –
– | 3.91 | 4.03 | – | – | – | N#Cc1ccc(CNC(=O)c2cc(-c3ccc(OC(F)(F)F)cc3)cc(NC(=O)C3CC3)n2)c(F)c1 [Example I-079] | 100% | 90% | 100% | 100% | – | 100% | 100% | – | – | – | – | – | –
3.46 | 3.40 | – | – | – | – | N#Cc1ccc(CNC(=O)c2cc(-c3cc(F)c(OC(F)F)c(F)c3)cc(NC(=O)C3CC3)n2)cc1 [Example I-155] | 100% | 100% | 100% | 100% | – | 83% | 100% | – | – | – | – | – | –
– | 3.39 | 3.51 | – | – | – | O=C(NC1CC1)c1cc(-c2ccc(OC(F)(F)F)cc2)cc(NC(=O)C2CC2)n1 [Example I-089] | 100% | 100% | 100% | 100% | 100% | 100% | 95% | – | – | – | – | – | –
4.27 | 4.57 | – | – | – | – | N#Cc1ccc(CNC(=O)c2cc(-c3ccc4c(c3)OC(F)(F)C(F)(F)O4)cc(NC(=O)C3CC3)n2)cc1 [Example I-172] | 100% | 100% | 100% | 100% | – | 100% | 100% | – | – | – | – | – | –
– | 3.97 | 4.11 | – | – | – | O=C(NCc1ccc([N+](=O)[O-])cc1)c1cc(-c2ccc(OC(F)(F)F)cc2)cc(NC(=O)C2CC2)n1 [Example I-085] | 100% | 80% | 100% | 100% | 100% | 100% | 100% | – | – | – | – | – | –
– | – | – | 3.73 | 3.68 | – | N#Cc1ccc(CNC(=O)c2cc(-c3ccc(C(F)(F)F)s3)cc(NC(=O)C3CC3)n2)cc1 [Example I-160, N-(4-Cyanobenzyl)-6-[(cyclopropylcarbonyl)amino]-4-[5-(trifluoromethyl)-2-thienyl]pyridine-2-carboxamide] | – | 80% | – | – | – | – | 100% | 100% | 100% | 100% | 100% | 100% | –
– | 3.94 | 4.01 | – | – | – | CC(NC(=O)c1cc(-c2ccc(C(F)(F)F)cc2)cc(NC(=O)C2CC2)n1)c1ccc(C#N)cc1 (stereo not drawn) [Example I-040] | 98% | 90% | 83% | 100% | 100% | 100% | 100% | – | – | – | – | – | –
4.23 | – | – | – | – | – | O=C(NC1(C2CC2)CC1)c1cc(-c2ccc(OC(F)(F)F)cc2)cc(NC(=O)C2CC2)n1 [Example I-184] | 100% | – | – | 100% | 100% | 100% | 100% | – | – | – | – | – | 100%
– | 3.79 | 3.90 | – | – | – | N#Cc1ccc(CNC(=O)c2cc(-c3ccc(C(F)(F)F)cc3)cc(NC(=O)C3CC3)n2)c(F)c1 [Example I-077] | 100% | 80% | 100% | 100% | 83% | 100% | 100% | – | – | – | – | – | –
– | 4.21 | 4.35 | – | – | – | CC(C)C(=O)Nc1cc(-c2ccc(OC(F)(F)F)cc2)cc(C(=O)NCc2cc(F)c(C#N)c(F)c2)n1 [Example I-073] | 100% | 80% | 83% | 100% | – | – | 100% | – | – | – | – | – | –
4.08 | 3.93 | – | – | – | – | N#Cc1ccc(C2(NC(=O)c3cc(-c4ccc(OC(F)(F)F)cc4)cc(NC(=O)C4CC4)n3)CC2)cc1 [Example I-159] | 100% | 80% | 100% | 100% | – | – | 90% | – | – | – | – | – | –
– | 3.80 | 3.86 | – | – | – | Cn1nccc1-c1ccc(CNC(=O)c2cc(-c3ccc(OC(F)(F)F)cc3)cc(NC(=O)C3CC3)n2)cc1 [Example I-107] | – | 90% | – | 100% | 100% | 100% | 100% | – | – | – | – | – | –
– | – | 4.51 | – | – | 4.51 | N#Cc1cc(F)c(CNC(=O)c2cc(-c3ccc(C(F)(F)C(F)(F)F)c(F)c3)cc(NC(=O)C3CC3)n2)cc1F [Example I-249] | 100% | – | 100% | 100% | 100% | 100% | 100% | – | – | – | – | – | –
4.14 | 4.02 | – | – | – | – | N#Cc1ccc(CNC(=O)c2cc(-c3ccc(OC(F)(F)F)cc3)cc(NC(=O)C3CC(F)(F)C3)n2)cc1 [Example I-213] | 100% | – | 100% | – | 100% | 100% | 100% | – | – | – | – | – | –
3.86 | 3.82 | – | – | – | – | N#Cc1ccc(CNC(=O)c2cc(-c3ccc(C(F)(F)F)c(F)c3)cc(NC(=O)C3CC3)n2)cc1 [Example I-224] | 100% | – | 100% | 100% | 100% | 100% | 100% | – | – | – | – | – | –
